Assay results from US20190282496A1 (Bryn Pharma, LLC, priority 2018, published 2019).

Assays:
[1] = test system: histamine induced nasal congestion
[2] = dogs; concomitant intranasal administration of phentolamine; Bleske et al.; cited from earlier work

SMILES | nasal congestion and flow restriction pressure ([1]; Group 1, 5 and 10 minutes post-histamine exposure) | histamine-induced nasal congestion ([1]; aerosolized 5% histamine, all animals) | histamine induced congestion without epinephrine administration ([1]; pilot study, 60, 80 and 100 minute time points) | epinephrine plasma levels following intranasal administration [2]
NCCc1c[nH]cn1 [Histamine] | progressive increase | induced congestion in all animals to varying degrees | remains elevated at significant levels | –
Cc1ccc(N(CC2=NCCN2)c2cccc(O)c2)cc1 [phentolamine] | – | – | – | enhanced
